Measurements taken from patent publication US9464972B2, “Apparatus and procedure for in vitro measurement of a substance, nicotine, released from a smokeless tobacco product” (priority 2011, dated 2016).
Where two headings read alike, the source gives them in different places.

Settings: for nicotine release (accumulated, of total nicotine): artificial saliva Table 3, pH 5.8, 37° C., flow 4 ml/min
Text: The nicotine extraction and collection procedure include the following steps:
1. Add fluid (140) to the reservoir (120). Fluid (140) is artificial saliva where the extraction is nicotine from a smokeless tobacco product;
2. Set the bath (200) and the heating or cooling element (220) temperature control (230) to the temperature desired as established from the in vivo environment. Where the fluid (140) is artificial saliva and, for the measurement of nicotine in a smokeless tobacco product, set the temperature to 37° C.;
3. Start the fluid pump (180) and set the pump to the desired pump rate.
4. When the temperature and flow rate are stabilized, add the product sample (330) to extraction bottle interior (304) onto the screen mesh (325). Where the product sample is for a smokeless tobacco product sample (330) the product sample (330) is a smokeless tobacco sachet; the product sample (330) is placed onto the screen mesh (325) in alignment with the supply tube (310);
5. The fluid (140) from the supply tube (310) is flowed or dripped onto the product sample (330) producing an extract (1000) from the combination of the fluid (140) and the sample (330) which is drained from the extraction bottle (300) by a collection tube (335) and is then deposited into at least one collection bottle (400) at intervals determined by experimental design. Where the product sample (330) is a smokeless tobacco product sample (330) 1−n collection bottles (400) will used with bottles (400) changed at intervals of 1-5 min based on experimental design;
6. Extract the residual element from the product sample (330) by placing the product sample (330) in solvent effective for the type of product sample (330); where the product sample (330) is a smokeless tobacco product, the solvent in the preferred embodiment is 20 to 50 ml ethanol:5% NaOH mixture (9:1), and extract with ultrasound for 30 min.
7. Measure the target element in the extract (1000) by use of a measuring instrument suitable for the attributes of the target element in the extract (1000); for the preferred embodiment when the target element is nicotine from a smokeless tobacco product the measuring instrument is high-performance liquid chromatography (HPLC); the extract (1000) of nicotine in artificial saliva and the residual nicotine from ethanol NaOH mixture are determined using HPLC in the following conditions: • 1. Chromatograph column is a C18 reverse phase column • 2. Mobile phase is methanol and 20 mmol phosphate buffer (23:77, volume to volume) with 0.2% Triethylamine, pH=6.0 • 3. Flow rate is 1 ml/min • 4. Column temperature is 35° C.
Artificial saliva temperature was maintained at 37° C., pump flow rate 1 ml/min. Artificial saliva was made using the formula in Table 1, with a pH of 6.7. The artificial saliva collection intervals were at 1, 2, 3, 4, 5, 6, 7, 8, 9, 10, 12, 14, 16, 18, 20, 24, 28, 32 minutes after the extraction started.
Artificial saliva temperature was maintained at 37° C., pump flow rate 2 ml/min. Artificial saliva was made using the formula in Table 2, with a pH of 7.0. The artificial saliva collection intervals were at 1, 2, 3, 4, 5, 6, 7, 8, 9, 10, 12, 14, 16, 18, 20, 22, 24, 26, 28, 30 minutes after the extraction start.
Artificial saliva temperature was maintained at 37° C., pump flow rate 4 ml/min. Artificial saliva was made using the formula in Table 3, with a pH of 5.8. The artificial saliva collection intervals were at 2, 4, 6, 7, 8, 10, 12, 14, 16, 18, 20, 24, 28, and 32 minutes after the extraction start.

CN1CCCC1c1cccnc1 (centres unmarked) [nicotine]
nicotine collected (Example 1: 20 to 32 min extraction period, artificial saliva Table 1, pH 6.7, 37° C., flow 1 ml/min): very little
nicotine released from tobacco (accumulated, of total nicotine) (Example 1: after 20 min of extraction, artificial saliva Table 1, pH 6.7, 37° C., flow 1 ml/min): over 90%
average rate of nicotine release (Example 1: first 5 minutes, artificial saliva Table 1, pH 6.7, 37° C., flow 1 ml/min, smokeless tobacco sachet): approximately 10%
average rate of nicotine release (Example 1: from 6 min to 10 min, artificial saliva Table 1, pH 6.7, 37° C., flow 1 ml/min): approximately 4.3%
average rate of nicotine release (Example 1: from 11 min to 20 min, artificial saliva Table 1, pH 6.7, 37° C., flow 1 ml/min): approximately 1%
nicotine collected (Example 2: 20 to 30 min extraction period, artificial saliva Table 2, pH 7.0, 37° C., flow 2 ml/min): very little
nicotine released (of total nicotine) (Example 2: first 5 minutes, artificial saliva Table 2, pH 7.0, 37° C., flow 2 ml/min): 64%
nicotine released from tobacco (accumulated, of total nicotine) (Example 2: first 20 min of extraction, artificial saliva Table 2, pH 7.0, 37° C., flow 2 ml/min): over 95%
nicotine released (additional, of total nicotine) (Example 2: from 6 min to 10 min, artificial saliva Table 2, pH 7.0, 37° C., flow 2 ml/min): 20%
nicotine release (accumulated, of total nicotine) (Example 3: first 6 min): 82%
nicotine release (accumulated, of total nicotine) (Example 3: first 10 min): 92%
